Experimental data as given in US20230285570A1, “THERAPEUTICALLY USEFUL CURE-PRO MOLECULES FOR E3 LIGASE MEDIATED DEGRADATION OF PROTEINS, AND METHODS OF MAKING AND USING THEM” (CORNELL UNIVERSITY, priority 2020, published 2023).
Entries after “also recorded” stand apart in the source; their conditions may differ. Each block holds one molecule with its values, some of them ahead of it.

Assays:
c-MYC [1] = biological target: T1, c-MYC (Homo sapiens, UniProt P01106); test: Summary of C-MYC degradation by CURE-PRO pairs, estimated from Western Blot or WES; type: cell-based; parameters: endogenous in cells; host or cells: HT29; conditions: for Degradation of C-MYC, combination with MDM2 ligand 8310: Table 11, aromatic 1,2-diol MYC ligand + 8310; for Degradation of C-MYC, combination with MDM2 ligand 8312: Table 11, aromatic 1,2-diol MYC ligand + 8312; for Degradation of C-MYC, combination with CRBN ligand 8046: Table 7, aryl-boronic acid MYC ligand + 8046; for Degradation of C-MYC, combination with CRBN ligand 8047: Table 7, aryl-boronic acid MYC ligand + 8047; for Degradation of C-MYC, combination with CRBN ligand 8048: Table 10, aromatic 1,2-diol MYC ligand + 8048; for Degradation of C-MYC, combination with CRBN ligand 8049: Table 10, aromatic 1,2-diol MYC ligand + 8049; for Degradation of C-MYC, combination with VHL ligand 8297: Table 12, aromatic 1,2-diol MYC ligand + 8297; for Degradation of C-MYC, combination with VHL ligand 8298: Table 12, aromatic 1,2-diol MYC ligand + 8298
T1 sequence (P01106 whole entry): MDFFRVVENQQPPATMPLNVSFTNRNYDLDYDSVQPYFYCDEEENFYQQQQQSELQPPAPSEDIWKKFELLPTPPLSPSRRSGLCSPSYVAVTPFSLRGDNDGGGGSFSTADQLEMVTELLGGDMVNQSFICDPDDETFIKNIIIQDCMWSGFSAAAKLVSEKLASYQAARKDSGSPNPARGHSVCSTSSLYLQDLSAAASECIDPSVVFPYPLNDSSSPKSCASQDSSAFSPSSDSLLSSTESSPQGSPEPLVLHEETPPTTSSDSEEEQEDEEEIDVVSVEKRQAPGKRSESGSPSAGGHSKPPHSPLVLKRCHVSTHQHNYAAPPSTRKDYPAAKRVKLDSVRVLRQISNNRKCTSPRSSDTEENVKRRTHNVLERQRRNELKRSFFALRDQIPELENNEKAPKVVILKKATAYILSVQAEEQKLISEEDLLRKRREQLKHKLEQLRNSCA
Method: (§1) Namalwa, Ramosm HeLa, MCF7, or HT29 HCT116 cells (2.5-3×10^6) were treated for 24 hours with the indicated compounds solubilized in DMSO. The cells were washed in ice-cold PBS and were then lysed in RIPA lysis buffer (150 mM NaCl, 5 mM EDTA, 1% NP-40, 0.5% sodium deoxycholate, 0.1% SDS, 50 mM Tris, pH 8.0.) with Roche protease inhibitor complete cocktail and phosphatase inhibitors (10 mM sodium fluoride, 10 mM sodium pyrophosphate, 1 mM sodium orthovanadate and 20 mM β-glycerophosphate). The total protein concentrations were determined by Bradford Protein Assay (Pierce) and 10-20 μg of protein was loaded onto 4-15% Tris-Glycine gradient gels (Biorad). After standard gel electrophoresis, the separated proteins were transferred to PVDF membrane by wet transfer. The immunoblots were then blocked for 1 hour in 5% skim milk in TBST or 5% BSA in TBST, according to manufacturer's instructions, before an overnight incubation at 4° C. with indicated antibodies and membranes. Membranes were then incubated with the appropriate horseradish peroxidase-conjugated secondary antibodies (1:5,000 dilution) for 1 h at room temperature and the bands were visualized using the Clarity Max Western ECL Substrate (Biorad) and the ChemiDoc Imaging System (Biorad). Signal was detected with ECL Western Blotting Substrate (Pierce) and X-ray film processed with a Konica SRX-101 X-ray film processor or captured by Bio-Rad's Chemidoc Imaging system.
WES Simple analysis was performed on WES system (ProteinSimple-Biotechne) according to the manufacturer's instructions. Total protein concentrations of cell lysates were determined by the Pierce BCA kit (Thermo Fisher). 3 μL of 0.3 μg/μL of the protein lysate was loaded onto a 12- to 230-kDa WES assay plate (ProteinSimple) where 300 nL sample was withdrawn through a capillary, subjected to electrophoretic separation of proteins by size, and followed by the simultaneous, HRP-based detection of proteins using the Anti-Rabbit Detection Module (Proteinsimple: #DM-001). The electropherograms were checked then the automatic peak detection was manually corrected if it was required.
A black check mark indicates efficacy of 30% to 70% or higher protein degradation.

c-MYC [2] = biological target: T1, c-MYC; test: CURE-PRO-mediated c-MYC degradation in HT29 cells, Western blot; type: cell-based; parameters: endogenous in cells; host or cells: HT29
Method: as §1
HT29 cells (2.5×10^6) were treated for 24 h with the compounds solubilized in DMSO. Compounds were added at 10 nM-10 μM each, as indicated in the description of the figures. Standardized protein samples were electrophoresed and imaged as described in the immunoblotting section above. c-MYC monomers (10058-F4 derivatives comprising catechol linkers), and CRBN ligands, 8048 and 8049 (pomalidomide derivatives comprising boronic acid linkers) combined in a 1:1 ratio.
HT29 cells (2.5×10^6) were treated for 24 h with the compounds solubilized in DMSO. Compounds were added at 100 nM-10 μM each.
(§2) HT29 cells (2.5×10^6) were treated for 24 h with the compounds solubilized in DMSO. Compounds were added at 100 nM-10 μM each. Standardized protein samples were electrophoresed and imaged as described in the immunoblotting section above. c-MYC monomer, MYC-E1, (a 10058-F4 derivative comprising boronic acid linkers), and CRBN ligands, 8046, 8047 and 8066 (pomalidomide derivatives comprising diol linkers) combined in a 1:1 ratio.
as §2, with “monomers, MYC-E6 (FIG. 90), MYC-E10 (FIG. 91), and MYC-E16 (FIG. 92) (10074-G5 derivatives” for “monomer, MYC-E1, (a 10058-F4 derivative”
(§3) HT29 cells (2.5×10^6) were treated for 24 h with the compounds solubilized in DMSO. Compounds were added at 10 nM-10 μM each. Standardized protein samples were electrophoresed and imaged as described in the immunoblotting section above. c-MYC monomer, MYC-N16 (FIG. 93) (10074-G5 derivatives comprising diol linkers), and VHL ligands, 8297 and 8298 (VH-298 derivatives comprising boronic acid linkers) were combined in a 1:1 ratio.
as §3, with “monomers, MYC-E7” for “monomer, MYC-N16”, “96), MYC-E10 (FIG. 97), and MYC-E17 (FIG. 98),” for “93)”, “boronic acid” for “diol”, “diol” for “boronic acid”

[3] = 1:1 with CRBN ligand 8046, HT29, 24 h, 100 nM-10 μM each
[4] = 1:1 with CRBN ligand 8047, HT29, 24 h, 100 nM-10 μM each
[5] = 1:1 with CRBN ligand 8066, HT29, 24 h, 100 nM-10 μM each
[6] = 1:1 with VHL ligand 8298, HT29, 24 h, 10 nM-10 μM each
[7] = 1:1 with CRBN ligand 8048, HT29, 24 h, 10 nM-10 μM each
[8] = c-MYC monomer alone, HT29, 24 h, 10 nM-10 μM

SMILES: O=C(NCc1cccc(O)c1O)c1ccc(Nc2ccc([N+](=O)[O-])c3nonc23)cc1 [MYC- N18]
Degradation of C-MYC, combination with MDM2 ligand 8310 (c-MYC [1]): √ (A black check mark indicates efficacy of 30% to 70% or higher protein degradation)

SMILES: O=C(NCCNC(=O)c1ccccc1Nc1ccc([N+](=O)[O-])c2nonc12)c1ccc(O)c(O)c1 [MYC- N21]
Degradation of C-MYC, combination with MDM2 ligand 8310 (c-MYC [1]): √ (A black check mark indicates efficacy of 30% to 70% or higher protein degradation)

SMILES: O=C(NCCNC(=O)c1cccc(O)c1O)c1ccccc1Nc1ccc([N+](=O)[O-])c2nonc12 [MYC- N22]
Degradation of C-MYC, combination with MDM2 ligand 8310 (c-MYC [1]): √ (A black check mark indicates efficacy of 30% to 70% or higher protein degradation) | Degradation of C-MYC, combination with MDM2 ligand 8312 (c-MYC [1]): √ (A black check mark indicates efficacy of 30% to 70% or higher protein degradation)

c-MYC degradation (c-MYC [2]; [5]): no degradation was observed
SMILES: CCc1ccc(/C=C2\SC(=O)N(Cc3cccc(B(O)O)c3)C2=O)cc1 [MYC-E1]
c-MYC degradation (c-MYC [2]; [3]): Some degradation is seen; also recorded: causes degradation of c-MYC | c-MYC degradation (c-MYC [2]; [4]): Some degradation is seen; also recorded: no degradation was observed | Degradation of C-MYC, combination with CRBN ligand 8046 (c-MYC [1]): √ (A black check mark indicates efficacy of 30% to 70% or higher protein degradation) | Degradation of C-MYC, combination with CRBN ligand 8066 (c-MYC [1]; Table 7, aryl-boronic acid MYC ligand + 8066): √ (A black check mark indicates efficacy of 30% to 70% or higher protein degradation)

c-MYC degradation (c-MYC [2]; [3]): no degradation was observed | c-MYC degradation (c-MYC [2]; [4]): caused degradation of c-MYC | c-MYC degradation (c-MYC [2]; [5]): no degradation was observed
SMILES: O=[N+]([O-])c1ccc(Nc2ccccc2-c2ccc(B(O)O)cc2)c2nonc12 [MYC-E6]
Degradation of C-MYC, combination with CRBN ligand 8046 (c-MYC [1]): √ (A black check mark indicates efficacy of 30% to 70% or higher protein degradation) | Degradation of C-MYC, combination with CRBN ligand 8047 (c-MYC [1]): √ (A black check mark indicates efficacy of 30% to 70% or higher protein degradation)

c-MYC degradation (c-MYC [2]; [3]): caused c-MYC degradation | c-MYC degradation (c-MYC [2]; [6]): caused degradation of c-MYC | c-MYC degradation (c-MYC [2]; 1:1 with VHL ligand 8305, HT29, 24 h, 10 nM-10 μM each): caused loss of c-MYC protein
SMILES: O=C(NCc1cccc(B(O)O)c1)c1ccc(Nc2ccc([N+](=O)[O-])c3nonc23)cc1 [MYC-E10]
Degradation of C-MYC, combination with CRBN ligand 8046 (c-MYC [1]): √ (A black check mark indicates efficacy of 30% to 70% or higher protein degradation)

SMILES: Cc1ccc(CNC(=O)c2ccccc2Nc2ccc([N+](=O)[O-])c3nonc23)cc1B(O)O [MYC-E16]
c-MYC degradation (c-MYC [2]; [4]): Some degradation is seen; also recorded: caused c-MYC degradation | Degradation of C-MYC, combination with CRBN ligand 8047 (c-MYC [1]): √ (A black check mark indicates efficacy of 30% to 70% or higher protein degradation)

SMILES: O=C(NCc1ccc(Cl)c(B(O)O)c1)c1ccccc1Nc1ccc([N+](=O)[O-])c2nonc12 [MYC-E18]
Degradation of C-MYC, combination with CRBN ligand 8046 (c-MYC [1]): √ (A black check mark indicates efficacy of 30% to 70% or higher protein degradation)

c-MYC degradation (c-MYC [2]; [7]): caused c-MYC degradation | c-MYC degradation (c-MYC [2]; [8]): there is no degradation of c-MYC
SMILES: CCc1ccc(/C=C2\SC(=O)N(CCc3cccc(O)c3O)C2=O)cc1 [MYC-N4]
Degradation of C-MYC, combination with CRBN ligand 8048 (c-MYC [1]): √ (A black check mark indicates efficacy of 30% to 70% or higher protein degradation)

c-MYC degradation (c-MYC [2]; [8]): there is no degradation of c-MYC
SMILES: CCc1ccc(/C=C2\SC(=O)N(CCNC(=O)c3ccc(O)c(O)c3)C2=O)cc1 [MYC-N7]
c-MYC degradation (c-MYC [2]; [7]): cause c-MYC protein degradation; also recorded: caused degradation of c-MYC | c-MYC degradation (c-MYC [2]; 1:1 with CRBN ligand 8049, HT29, 24 h, 10 nM-10 μM each): cause c-MYC protein degradation; also recorded: caused degradation of c-MYC | Degradation of C-MYC, combination with CRBN ligand 8049 (c-MYC [1]): √ (A black check mark indicates efficacy of 30% to 70% or higher protein degradation)

SMILES: CCc1ccc(/C=C2\SC(=O)N(CCNC(=O)c3cccc(O)c3O)C2=O)cc1 [MYC-N08]
Degradation of C-MYC, combination with VHL ligand 8297 (c-MYC [1]): √ (A black check mark indicates efficacy of 30% to 70% or higher protein degradation) | Degradation of C-MYC, combination with VHL ligand 8298 (c-MYC [1]): √ (A black check mark indicates efficacy of 30% to 70% or higher protein degradation)

SMILES: O=[N+]([O-])c1ccc(Nc2cccc(O)c2O)c2nonc12 [MYC-N11]
Degradation of C-MYC, combination with CRBN ligand 8048 (c-MYC [1]): √ (A black check mark indicates efficacy of 30% to 70% or higher protein degradation)

SMILES: O=C(NCc1ccc(O)c(O)c1)c1ccccc1Nc1ccc([N+](=O)[O-])c2nonc12 [MYC-N15]
Degradation of C-MYC, combination with CRBN ligand 8048 (c-MYC [1]): √ (A black check mark indicates efficacy of 30% to 70% or higher protein degradation) | Degradation of C-MYC, combination with CRBN ligand 8049 (c-MYC [1]): √ (A black check mark indicates efficacy of 30% to 70% or higher protein degradation)

c-MYC degradation (c-MYC [2]; [7]): caused c-MYC degradation | c-MYC degradation (c-MYC [2]; 1:1 with VHL ligand 8297, HT29, 24 h, 10 nM-10 μM each): caused degradation of c-MYC | c-MYC degradation (c-MYC [2]; [6]): caused degradation of c-MYC
SMILES: O=C(NCc1cccc(O)c1O)c1ccccc1Nc1ccc([N+](=O)[O-])c2nonc12 [MYC-N16]
c-MYC degradation (c-MYC [2]; [8]): there is no degradation of c-MYC; also recorded: no loss of c-MYC protein was observed | Degradation of C-MYC, combination with CRBN ligand 8048 (c-MYC [1]): √ (A black check mark indicates efficacy of 30% to 70% or higher protein degradation) | Degradation of C-MYC, combination with MDM2 ligand 8312 (c-MYC [1]): √ (A black check mark indicates efficacy of 30% to 70% or higher protein degradation) | Degradation of C-MYC, combination with VHL ligand 8297 (c-MYC [1]): √ (A black check mark indicates efficacy of 30% to 70% or higher protein degradation) | Degradation of C-MYC, combination with VHL ligand 8298 (c-MYC [1]): √ (A black check mark indicates efficacy of 30% to 70% or higher protein degradation)

SMILES: O=C(NCc1ccc(O)c(O)c1)c1ccc(Nc2ccc([N+](=O)[O-])c3nonc23)cc1 [MYC-N17]
Degradation of C-MYC, combination with VHL ligand 8298 (c-MYC [1]): √ (A black check mark indicates efficacy of 30% to 70% or higher protein degradation)

SMILES: O=C(NCCN1C(=O)C/C(=C\c2ccc(F)cc2)C1=O)[C@H]1C[C@@H]2C[C@H]1[C@@H](O)[C@H]2O [MYC-N30]
Degradation of C-MYC, combination with CRBN ligand 8048 (c-MYC [1]): √ (A black check mark indicates efficacy of 30% to 70% or higher protein degradation) | Degradation of C-MYC, combination with CRBN ligand 8049 (c-MYC [1]): √ (A black check mark indicates efficacy of 30% to 70% or higher protein degradation)
